The target of experiment [1] is T1, GNAQ (T96S) (Homo sapiens, UniProt P50148, T96S).
T1 construct: BPS Bioscience (parental reporter cell line) 60406
T1 sequence (P50148 1-359 T96S): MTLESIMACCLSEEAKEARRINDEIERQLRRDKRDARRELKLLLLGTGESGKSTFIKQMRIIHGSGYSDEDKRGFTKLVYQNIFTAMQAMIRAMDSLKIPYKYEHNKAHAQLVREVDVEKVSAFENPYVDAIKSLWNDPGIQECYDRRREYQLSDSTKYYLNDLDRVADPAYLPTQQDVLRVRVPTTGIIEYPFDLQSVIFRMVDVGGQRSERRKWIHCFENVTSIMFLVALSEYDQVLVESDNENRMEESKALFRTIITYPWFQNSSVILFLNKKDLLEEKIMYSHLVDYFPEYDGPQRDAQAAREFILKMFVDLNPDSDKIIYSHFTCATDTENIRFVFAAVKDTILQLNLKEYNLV
As to the kind of experiment: SRE luciferase reporter gene-HEK293 cell line, GNAQ (T96S). It is filed as cell-based. The conditions noted are these: Cell type T96S, 20% FBS induction, read-out: GNAQ inhibitory rate; for inhibition at 0.9 µM: analytical concentration 900 nM; for inhibition at 2.7 µM: analytical concentration 2,700 nM; for inhibition at 8.1 µM: analytical concentration 8,100 nM. The method, then:
7.5×10^4 SRE-293-GNAQ (WT) or SRE-293-GNAQ (T96S) cell lines were seeded in a 24-well plate and cultured in a carbon dioxide incubator at 37° C. SRE-293-GNAQ (WT) or SRE-293-GNAQ (T96S) cell lines was derived from additionally transfecting SRE Reporter—HEK293 Recombinant Cell Line (ERK Pathway) (Catalog number: 60406; BPS Bioscience) cells with an expression vector separately expressing GNAQ (WT) or GNAQ (T96S), and screening a stable expression cell line by the antibiotic, geneticin (type number 10131035; Thermo Fisher Scientific). GNAQ (WT) or GNAQ (T96) expression vector was derived from gene synthesis and point mutation modification of GenScript company's customized services.
After 48 hours of culture, the culture medium in the 24-well plate was replaced with minimal essential medium (MEM) containing only 0.1% fetal bovine serum (FBS) and the cells were cultured overnight.
After overnight culture, the compound to be tested was added to the cells and reacted for 2 hours, and the medium at this point was still MEM medium containing only 0.1% fetal bovine serum. After reacting with the compound to be tested for 2 hours, fetal bovine serum at a final concentration of 20% was added to the cells and reacted for at least 4 hours. After the reaction, the supernatant was removed. Next, 100 μL of cell lysis reagent CelLytic M Cell Lysis Reagent (Catalog number: C2978; Sigma) was added to the cells and aspirated repeatedly several times to form a cell lysate solution with the cells. The cell lysate solution was collected in a microcentrifuge tube and centrifuged at a high speed of 14,000 rpm for 5 minutes. After that, 30 μL of supernatant was taken out and placed in a 96-well white plate for luminescence analysis, and 30 μL of firefly luminescence analysis reagent (Catalog No. E1501; Promega) diluted 3-fold was added and mixed well, and then luminescence detection was performed with a plate enzyme immunoassay analyzer (ELISA reader) to evaluate the effect of the compound to be tested on MAPK signaling induced by GNAQ through the expression of the firefly luciferase reporter gene.
In order to confirm the effect of the compounds on MAPK signaling induced by GNAQ, the screened SRE-HEK293 cells capable of expressing exogenous GNAQ (WT) and GNAQ (T96S) genes were subjected to overnight serum starvation, and 2 hours before induction with 20% fetal bovine serum, the compound to be tested (one of Compound 1 to Compound 15 prepared above) was added to the cells, and after serum induction, the expression of the firefly luciferase reporter gene was measured. Through the above steps, the inhibition of the compound to be tested on GNAQ expression could be evaluated through the expression of the reporter gene in cells.
(In a reporter assay the amount or activity of a reporter protein is the signal.)

The subject of experiment [2] is MCF-7 cells. As to the kind of experiment: Inhibition of growth of mammary gland cancer cells MCF-7 (PrestoBlue). It is filed as cell-based. Particulars: Homo sapiens, MCF7, 168 h, 7 days culture, 2% fetal bovine serum, read-out: Inhibitory activity (evaluated by IC50). The method, then: Human mammary gland cancer cells, MCF-7 cells and MCF-7 GNAQ (T96S) cells (MCF-7 cells expressing GNAQ (T96S) after GNAQ gene deletion) were cultured in MEM medium.
1×10^3 of the cells mentioned above were seeded in a 96-well plate and cultured overnight (at least 16 hours) in a carbon dioxide incubator.
After overnight incubation, the supernatant was removed. Next, after 200 μL of cell culture medium (containing 2% fetal bovine serum) containing different concentrations of test compound was added to each well of the 96-well plate, the 96-well plate was placed in a 5% carbon dioxide incubator at 37° C. for 7 days further culture. After that, an additional 30 μL of diluted PrestoBlue™ Cell Viability Reagent (Catalog Number: A13261; Thermo Fisher Scientific) (4 μL stock solution and 26 μL culture medium) was added to each well of the 96-well plate and the reaction was continued for further about 1 hour.
Finally, the fluorescence value at the wavelength of 535/615 nm of each well was read with a plate enzyme immunoassay analyzer, and the inhibitory rate of the compound on mammary gland cancer cells were calculated using the following formula.
Moreover, the half maximal inhibitory concentration (IC50) of the compound on the growth of mammary gland cancer cells was calculated with the inhibitory rate of the compound on mammary gland cancer cells at each concentration through the online half maximal inhibitory concentration (IC50) calculation software, IC50 Calculator, provided by AAT Bioquest company on its website (https://www.aatbio.com/tools/ic50-calculator).
Finally, the inhibition of the compound on the growth of mammary gland cancer cells was evaluated by the calculated half maximal inhibitory concentration (IC50) of the compound on the growth of mammary gland cancer cells.
The inhibition of the compound on the growth of breast cancer cells was evaluated by the half maximal inhibitory concentration (IC50) of the compound (one of Compound 1 to Compound 15 prepared above) on the growth of mammary gland cancer cells through the human mammary gland cancer cell line MCF-7 and the human mammary gland cancer cell line MCF-7 GNAQ (T96S) expressing the mutated gene.

pIC50: −log10 of the molar value. A value given as a limit tells only on which side of the number the result lay.

As to `O=C(Nc1cccc(-c2cccc(-c3ccncc3)n2)c1)Nc1cc(Cl)nc(Cl)c1` [Compound 13], in experiment [1], the inhibition at 0.9 µM lay within 10 to 39%, the inhibition at 2.7 µM fell in the range of 40 to 70% and the inhibition at 8.1 µM is above 70%. Moreover, the pIC50 in experiment [2] was 5.60 to 6.51.

Consider `O=C(Nc1cccc(-c2ccnc(-c3ccc(F)c(F)c3)n2)c1)Nc1cc(Cl)nc(Cl)c1` [Compound 4], for which, in experiment [1], the inhibition at 0.9 µM is below 10%, the inhibition at 2.7 µM fell in the range of 10 to 39% and the inhibition at 8.1 µM fell in the range of 40 to 70%. Besides, in experiment [2], the pIC50 is 5.60 to 6.51.

For `FC(F)(F)c1cccc(-c2cccc(-c3ccc(NC(=S)Nc4cc(Cl)nc(Cl)c4)cc3)n2)c1` [Compound 10], in experiment [1], the inhibition at 0.9 µM was below 10%, the inhibition at 2.7 µM fell in the range of 40 to 70% and the inhibition at 8.1 µM was above 70%. The negative-log IC50 (pIC50) in experiment [2] is 5.60 to 6.51.

On to `O=C(Nc1ccc(-c2cccc(-c3cccc(C(F)(F)F)c3)n2)cc1)Nc1cc(Cl)nc(Cl)c1` [Compound 9], for which, in experiment [1], the inhibition at 0.9 µM was below 10%, the inhibition at 2.7 µM was 10 to 39% and the inhibition at 8.1 µM is 40 to 70%. For the same compound, in experiment [2], the negative logarithm of the IC50 (pIC50) was 5.60 to 6.51.

Take `O=C(Nc1ccc(-c2cccc(-c3ccncc3)n2)cc1)Nc1ccc(Cl)c(C(F)(F)F)c1` [Compound 12]: in experiment [1], the inhibition at 0.9 µM lay in the range of 10 to 39%, the inhibition at 2.7 µM was in the range of 40 to 70% and the inhibition at 8.1 µM lay within 40 to 70%. Besides, the pIC50 in experiment [2] is 5.60 to 6.51.

On to `O=C(Nc1ccc(-c2nc(-c3ccccc3)ncc2Cl)cc1)Nc1cc(Cl)nc(Cl)c1` [Compound 15], for which, in experiment [1], the inhibition at 0.9 µM is below 10%, the inhibition at 2.7 µM was 10 to 39% and the inhibition at 8.1 µM is 40 to 70%. Moreover, the pIC50 in experiment [2] is above 6.51.

Take `O=C(Nc1ccc(-c2ccnc(-c3cccc(C(F)(F)F)c3)n2)cc1)Nc1cc(Cl)nc(Cl)c1` [Compound 7]: in experiment [1], the inhibition at 0.9 µM was below 10%, the inhibition at 2.7 µM fell in the range of 10 to 39% and the inhibition at 8.1 µM fell in the range of 10 to 39%. Besides, in experiment [2], the negative logarithm of the IC50 (pIC50) is 5.60 to 6.51.

On to `O=C(Nc1cccc(-c2ccnc(-c3cccc(C(F)(F)F)c3)n2)c1)Nc1cc(Cl)nc(Cl)c1` [Compound 2], for which, in experiment [1], the inhibition at 0.9 µM is below 10%, the inhibition at 2.7 µM was in the range of 10 to 39% and the inhibition at 8.1 µM was above 70%. For the same compound, the pIC50 in experiment [2] is 5.60 to 6.51.

As to `N#Cc1cccc(-c2nccc(-c3cccc(NC(=O)Nc4cc(Cl)nc(Cl)c4)c3)n2)c1` [Compound 3], in experiment [1], the inhibition at 0.9 µM was below 10%, the inhibition at 2.7 µM lay within 40 to 70% and the inhibition at 8.1 µM is above 70%. For the same compound, the pIC50 in experiment [2] was 5.60 to 6.51.

As for `N#Cc1cccc(-c2cccc(-c3ccc(NC(=S)Nc4cc(Cl)nc(Cl)c4)cc3)n2)c1` [Compound 11], in experiment [1], the inhibition at 0.9 µM lay within 10 to 39%, the inhibition at 2.7 µM was 40 to 70% and the inhibition at 8.1 µM was above 70%. Further, the pIC50 in experiment [2] was 5.60 to 6.51.

With `O=C(Nc1cccc(-c2ccnc(-c3cccc(C(F)(F)F)c3)n2)c1)c1cc(Cl)nc(Cl)c1` [Compound 5], in experiment [1], the inhibition at 0.9 µM is below 10%, the inhibition at 2.7 µM was below 10% and the inhibition at 8.1 µM was below 10%. Further, the negative logarithm of the IC50 (pIC50) in experiment [2] was 5.60 to 6.51.

With `O=C(Nc1ccc(-c2ccnc(-c3cccc(C(F)(F)F)c3)n2)cc1)Nc1ccc(Cl)c(C(F)(F)F)c1` [Compound 8], in experiment [1], the inhibition at 0.9 µM is below 10%, the inhibition at 2.7 µM was below 10% and the inhibition at 8.1 µM was in the range of 10 to 39%. For the same compound, the negative logarithm of the IC50 (pIC50) in experiment [2] is 5.60 to 6.51.

Take `O=C(Nc1cccc(-c2cc(-c3cccc(C(F)(F)F)c3)ncn2)c1)Nc1cc(Cl)nc(Cl)c1` [Compound 14]: in experiment [1], the inhibition at 0.9 µM is 10 to 39%, the inhibition at 2.7 µM was in the range of 10 to 39% and the inhibition at 8.1 µM was above 70%. The pIC50 in experiment [2] was above 6.51.

Take `O=C(Nc1cccc(-c2ccnc(-c3ccnc(Cl)c3)n2)c1)Nc1cc(Cl)nc(Cl)c1` [Compound 1]: in experiment [1], the inhibition at 0.9 µM was below 10%, the inhibition at 2.7 µM fell in the range of 10 to 39% and the inhibition at 8.1 µM is above 70%. In addition, the negative-log IC50 (pIC50) in experiment [2] was 5.60 to 6.51.

Consider `O=C(Nc1ccc(-c2ccnc(-c3ccncc3)n2)cc1)Nc1ccc(Cl)c(C(F)(F)F)c1` [Compound 6], for which, in experiment [1], the inhibition at 0.9 µM lay in the range of 10 to 39%, the inhibition at 2.7 µM lay in the range of 10 to 39% and the inhibition at 8.1 µM is 40 to 70%. Further, in experiment [2], the pIC50 was 5.60 to 6.51.

By pIC50 is commonly meant the negative decadic logarithm of the IC50, by convention in mol/L.

For the origin of these results see patent US20250197373A1, “SMALL MOLECULE COMPOUND OR SALT THEREOF OR SOLVATE OF THEM, GUANINE NUCLEOTIDE-BINDING PROTEIN G(Q) SUBUNIT ALPHA (GNAQ) INHIBITOR CONTAINING THE SAME AND METHOD FOR TREATING AND/OR PREVENTING CANCER” (INDUSTRIAL TECHNOLOGY RESEARCH INSTITUTE, priority 2023, published 2025).
